# From ChEMBL document CHEMBL3431459, “Roche carnitine palmitoyltransferase modulator screening data (supplementary data associated with the publication CHEMBL2216752)”
# Tests used:
# [1] = molecular target: T1, Carnitine O-palmitoyltransferase 1, muscle isoform (Homo sapiens, UniProt Q92523); experiment: SUPPLEMENTARY: Inhibition of Carnitine palmitoyltransferase 1, muscle isoform; design: species or system Muscle tissue
# T1 sequence (Q92523 whole entry): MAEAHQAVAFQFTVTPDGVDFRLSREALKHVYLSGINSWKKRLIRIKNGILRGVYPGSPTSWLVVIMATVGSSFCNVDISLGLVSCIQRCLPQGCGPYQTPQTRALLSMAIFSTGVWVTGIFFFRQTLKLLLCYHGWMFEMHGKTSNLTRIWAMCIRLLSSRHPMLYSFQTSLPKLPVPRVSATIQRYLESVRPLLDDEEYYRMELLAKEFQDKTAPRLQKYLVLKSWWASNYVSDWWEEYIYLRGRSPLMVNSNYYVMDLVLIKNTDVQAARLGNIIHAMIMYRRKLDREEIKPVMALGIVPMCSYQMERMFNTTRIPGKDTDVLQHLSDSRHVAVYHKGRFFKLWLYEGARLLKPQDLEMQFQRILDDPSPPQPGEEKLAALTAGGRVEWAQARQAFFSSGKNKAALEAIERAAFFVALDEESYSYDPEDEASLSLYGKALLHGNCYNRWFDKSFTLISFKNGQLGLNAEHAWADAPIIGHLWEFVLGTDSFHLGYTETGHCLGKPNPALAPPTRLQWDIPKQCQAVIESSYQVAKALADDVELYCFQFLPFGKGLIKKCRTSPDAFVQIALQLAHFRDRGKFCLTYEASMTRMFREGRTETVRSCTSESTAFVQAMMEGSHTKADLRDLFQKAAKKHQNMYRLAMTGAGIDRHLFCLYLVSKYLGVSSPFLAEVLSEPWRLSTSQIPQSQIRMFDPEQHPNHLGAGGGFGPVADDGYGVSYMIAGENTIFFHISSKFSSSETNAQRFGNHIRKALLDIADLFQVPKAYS
# [2] = molecular target: T2, Carnitine O-palmitoyltransferase 2, mitochondrial (Homo sapiens, UniProt P23786); experiment: (§1) SUPPLEMENTARY: Inhibition of Carnitine palmitoyltransferase 2
# T2 sequence (P23786 whole entry): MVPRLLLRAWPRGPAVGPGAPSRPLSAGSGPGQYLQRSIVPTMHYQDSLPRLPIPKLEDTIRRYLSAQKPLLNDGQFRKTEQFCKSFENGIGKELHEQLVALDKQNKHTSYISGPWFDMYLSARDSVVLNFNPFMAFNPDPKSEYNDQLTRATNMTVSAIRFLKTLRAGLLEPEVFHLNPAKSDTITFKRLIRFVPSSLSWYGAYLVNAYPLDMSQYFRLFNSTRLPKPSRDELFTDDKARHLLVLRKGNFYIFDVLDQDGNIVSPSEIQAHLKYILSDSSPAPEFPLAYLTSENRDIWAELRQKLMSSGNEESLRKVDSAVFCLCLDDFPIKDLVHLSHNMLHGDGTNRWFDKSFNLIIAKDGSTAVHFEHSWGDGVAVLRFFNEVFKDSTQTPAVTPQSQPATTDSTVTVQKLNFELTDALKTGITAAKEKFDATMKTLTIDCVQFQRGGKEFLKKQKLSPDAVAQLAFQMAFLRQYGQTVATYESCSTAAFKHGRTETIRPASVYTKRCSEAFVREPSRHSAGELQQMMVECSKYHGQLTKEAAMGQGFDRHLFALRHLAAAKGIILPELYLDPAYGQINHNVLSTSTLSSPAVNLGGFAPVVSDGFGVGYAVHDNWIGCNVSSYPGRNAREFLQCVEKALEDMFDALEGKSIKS
# [3] = molecular target: T3, Carnitine O-palmitoyltransferase 2, mitochondrial (Rattus norvegicus, UniProt P18886); experiment: as §1
# T3 sequence (P18886 whole entry): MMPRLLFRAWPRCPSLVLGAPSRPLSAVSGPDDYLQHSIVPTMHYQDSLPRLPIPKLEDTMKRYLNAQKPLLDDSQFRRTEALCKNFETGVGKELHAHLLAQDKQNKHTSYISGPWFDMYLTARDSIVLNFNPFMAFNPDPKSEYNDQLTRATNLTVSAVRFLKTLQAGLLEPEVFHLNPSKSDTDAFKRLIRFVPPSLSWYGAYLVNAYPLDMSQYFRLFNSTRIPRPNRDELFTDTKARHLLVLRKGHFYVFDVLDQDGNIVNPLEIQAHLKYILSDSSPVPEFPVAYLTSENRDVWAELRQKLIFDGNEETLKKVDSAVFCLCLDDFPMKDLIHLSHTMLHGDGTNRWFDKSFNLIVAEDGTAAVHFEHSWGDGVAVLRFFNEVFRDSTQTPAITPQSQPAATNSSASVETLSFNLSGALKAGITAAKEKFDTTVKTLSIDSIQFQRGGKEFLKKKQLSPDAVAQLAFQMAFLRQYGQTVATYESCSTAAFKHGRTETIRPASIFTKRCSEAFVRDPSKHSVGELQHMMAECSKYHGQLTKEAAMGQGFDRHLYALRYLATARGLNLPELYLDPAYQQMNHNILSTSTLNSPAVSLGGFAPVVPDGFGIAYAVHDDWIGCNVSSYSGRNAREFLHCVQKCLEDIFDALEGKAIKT
# [4] = molecular target: T4, Carnitine O-palmitoyltransferase 1, liver isoform (Homo sapiens, UniProt P50416); experiment: (§2) SUPPLEMENTARY: Inhibition of Carnitine palmitoyltransferase 1, liver isoform
# T4 sequence (P50416 whole entry): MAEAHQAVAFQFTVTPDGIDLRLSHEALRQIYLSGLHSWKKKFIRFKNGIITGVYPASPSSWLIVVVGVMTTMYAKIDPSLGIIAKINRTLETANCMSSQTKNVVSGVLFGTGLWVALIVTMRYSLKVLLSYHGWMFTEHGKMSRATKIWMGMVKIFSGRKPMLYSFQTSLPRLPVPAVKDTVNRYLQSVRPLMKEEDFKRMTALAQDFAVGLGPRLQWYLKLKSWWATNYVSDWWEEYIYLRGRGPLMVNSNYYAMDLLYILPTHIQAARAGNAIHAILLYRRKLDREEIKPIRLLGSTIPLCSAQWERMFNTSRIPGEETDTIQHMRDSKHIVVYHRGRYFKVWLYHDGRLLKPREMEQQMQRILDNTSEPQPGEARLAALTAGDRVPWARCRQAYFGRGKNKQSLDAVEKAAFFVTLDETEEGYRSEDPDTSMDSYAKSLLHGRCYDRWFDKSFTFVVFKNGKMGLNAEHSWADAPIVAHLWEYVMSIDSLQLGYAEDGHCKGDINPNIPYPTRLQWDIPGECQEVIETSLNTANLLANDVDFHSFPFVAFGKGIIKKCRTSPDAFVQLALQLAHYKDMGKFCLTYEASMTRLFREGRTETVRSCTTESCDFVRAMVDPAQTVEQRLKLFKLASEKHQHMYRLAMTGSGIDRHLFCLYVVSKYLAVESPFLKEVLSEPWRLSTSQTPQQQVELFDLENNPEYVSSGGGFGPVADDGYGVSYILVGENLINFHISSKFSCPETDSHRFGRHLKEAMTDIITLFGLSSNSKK
# [5] = molecular target: T5, Carnitine O-palmitoyltransferase 1, liver isoform (Rattus norvegicus, UniProt P32198); experiment: as §2
# T5 sequence (P32198 whole entry): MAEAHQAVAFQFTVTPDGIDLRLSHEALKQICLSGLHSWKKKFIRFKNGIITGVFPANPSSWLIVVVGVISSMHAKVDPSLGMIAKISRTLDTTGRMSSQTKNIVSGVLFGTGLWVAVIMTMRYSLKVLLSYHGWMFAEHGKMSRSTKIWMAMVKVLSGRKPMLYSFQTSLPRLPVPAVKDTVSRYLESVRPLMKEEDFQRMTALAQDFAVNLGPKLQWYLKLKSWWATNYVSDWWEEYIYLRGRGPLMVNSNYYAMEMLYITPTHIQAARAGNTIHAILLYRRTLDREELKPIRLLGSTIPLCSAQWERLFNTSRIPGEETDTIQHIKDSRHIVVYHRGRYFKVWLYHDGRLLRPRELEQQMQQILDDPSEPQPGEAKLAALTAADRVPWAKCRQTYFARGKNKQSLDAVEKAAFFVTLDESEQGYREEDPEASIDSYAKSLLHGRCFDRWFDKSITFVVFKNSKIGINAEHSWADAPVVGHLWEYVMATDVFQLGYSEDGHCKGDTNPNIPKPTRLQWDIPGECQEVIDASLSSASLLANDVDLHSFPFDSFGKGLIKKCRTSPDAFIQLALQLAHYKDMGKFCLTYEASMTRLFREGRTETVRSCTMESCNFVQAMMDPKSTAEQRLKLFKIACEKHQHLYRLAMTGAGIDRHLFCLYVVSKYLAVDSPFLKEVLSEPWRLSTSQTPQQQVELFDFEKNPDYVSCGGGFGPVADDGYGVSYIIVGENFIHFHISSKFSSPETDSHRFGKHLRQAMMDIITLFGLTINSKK
# [6] = SUPPLEMENTARY: Lyophilisation Solubility Assay (LYSA); assay type: physicochemical; conditions: read-out: Kinetic_solubility
# [7] = SUPPLEMENTARY: Lipophilicity (log D) Determination by high-throughput shake-flask; assay type: physicochemical; conditions: octanol/water
# [8] = SUPPLEMENTARY: PAMPA permeability assay; assay type: physicochemical; conditions: read-out: Permeability
IC50 [1] [nM],IC50 [2] [nM],IC50 [3] [nM],IC50 [4] [nM],IC50 [5] [nM],solubility kinetic [6] [µg/mL],logD [7],Papp [8] [×10⁻⁶ cm/s],Compound
52200,> 100000,> 100000,130,95.5,3,-0.14,0.28,O=C(O)c1ccc(NC(=O)c2ccc3c(c2)N(S(=O)(=O)c2cccc(Cl)c2)CC[S+]3[O-])cc1 (centres undefined)
37000,1860,> 100000,59.8,57.5,2,0.1,0.49,Cc1cc(C)cc(S(=O)(=O)N2CC[S+]([O-])c3ccc(C(=O)Nc4ccc(C(=O)O)cc4)cc32)c1 (centres undefined)
2760,> 100000,> 100000,91.1,34.8,48,2.7,1.03,COc1ccc(Cl)cc1CN1C(=O)C2(CC2)c2ccc(C(=O)Nc3nc(CC(=O)O)cs3)cc21
46800,> 100000,> 100000,53.7,54.2,440,0.47,2.38,COc1ccc(Cl)cc1S(=O)(=O)Nc1cc(C(=O)Nc2ccccc2)ccc1CCC(=O)O
> 100000,507,1310,210,76.8,37,2.45,3.57,O=C([C@H]1CCCCN1C(=O)COc1ccccc1)N1Cc2cc(F)c(OC3CCOCC3)cc2C1
> 100000,540,2010,229,106,70,2.01,8.31,O=C([C@H]1CCCCN1C(=O)COc1ccccc1)N1Cc2cc(F)c(N3CCOCC3)cc2C1
> 100000,489,1410,63.6,41.6,81,2.58,11.5,O=C([C@H]1CCCCN1C(=O)COc1ccccc1)N1Cc2ccc(O[C@@H]3CCOC3)cc2C1
9020,> 100000,> 100000,7.1,3,251,0.56,0.39,COc1ccc(Cl)cc1S(=O)(=O)c1cn(CCC(=O)O)c2ccc(C(=O)Nc3ccccc3)cc12
2560,> 100000,> 100000,236,440,438,1.34,3.2,COc1ccc(Cl)cc1CN(C(=O)C(C)C)c1cc(C(=O)Nc2nc(CC(=O)O)cs2)ccc1Cl
602,> 100000,> 100000,47.2,17,216,0.54,3.46,COc1ccc(Cl)cc1S(=O)(=O)N1CCCCc2ccc(C(=O)Nc3nc(CC(=O)O)cs3)cc21
2400,> 100000,> 100000,54.6,41.8,51,3.19,1.69,COc1ccc(C)cc1S(=O)(=O)N1CCCc2ccc(C(=O)Nc3nc(CC(=O)O)cs3)cc21
83100,> 100000,> 100000,136,79.8,> 585,0.36,1,COc1ccc(Cl)cc1S(=O)(=O)Nc1cc(C(=O)Nc2ccccc2)ccc1/C=C/C(=O)O
38000,> 100000,> 100000,136,135,521,-1.22,0.03,COc1ccc(Cl)cc1S(=O)(=O)N1COc2ccc(C(=O)Nc3ccn(CC(=O)O)n3)cc21
